Laboratory results as given in patent US11517600B2, “Use of Crassocephalum rabens extract in the treatment of breast cancer” (ACADEMIA SINICA, priority 2018, dated 2022).
pIC50: −log10 of the molar value.

Assays:
COX-2 [1] = experiment: IHC of COX-2 in liver and lung tissues; format: in vivo, mice; settings: day 30, dLGG 5 and 25, CR-API 200 and 400 mg/kg daily o.p., Dox 5 mg/kg every 3 days i.v., Dox5+dLGG5
Protocol: (§1) The therapeutic effects of dLGG or dLGG-enriched CR-API fractions from C. rabens against TNBC were evaluated using an orthotopic tumor model. Briefly, mice were subcutaneously injected with 4T1 (murine TNBC) cells (5×10^6 cells per 100 μl PBS and 50 μl matrigel per mouse) into the fourth mammary fat pad under isoflurane anaesthesia. Tumor growth and body weight are monitored daily. After tumors grow to an approximate size of 150 mm^3 at day 7 post implantation, test mice are randomized into different groups (8 mice per group) and subjected to a three-week compound treatment scheme (FIG. 2). […] Dosage and frequency of doxorubicin treatment is based on maximum tolerable dose determined from in house toxicity experiments within the concentration range commonly used in animal studies (Bao L, Haque A, Jackson K, et al. (2011) Increased Expression of P-Glycoprotein Is Associated with Doxorubicin Chemoresistance in the Metastatic 4T1 Breast Cancer Model. The American Journal of Pathology. 2011; 178 (2):838-852). Effects of drug/compound/extracts are evaluated thrice a week by monitoring tumor size and body weight. Euthanasia by cervical dislocation are performed at day 30 post tumor implantation. […]

CYP2C19 = experiment: Western blot of tumor tissues, CYP2C19; format: in vivo, mice; settings: all dLGG and CR-API groups, Dox5+dLGG5 compared with Dox5 alone
Protocol: as §1

[2] = test system: TNBC metastatic tumor nodules in lung; experiment: Distal metastasis to the lungs (H&E, Ki-67 IHC); format: in vivo, mice; settings: for tumor metastasis nodules in the lung tissues: day 30, all dose groups (dLGG5, dLGG25, CR-API200, CR-API400, Dox5, Dox5+dLGG5) vs tumor control
Protocol: (§2) The therapeutic effects of dLGG or dLGG-enriched CR-API fractions from C. rabens against TNBC were evaluated using an orthotopic tumor model. Briefly, mice were subcutaneously injected with 4T1 (murine TNBC) cells (5×10^6 cells per 100 μl PBS and 50 μl matrigel per mouse) into the fourth mammary fat pad under isoflurane anaesthesia. Tumor growth and body weight are monitored daily. After tumors grow to an approximate size of 150 mm^3 at day 7 post implantation, test mice are randomized into different groups (8 mice per group) and subjected to a three-week compound treatment scheme (FIG. 2). […] Dosage and frequency of doxorubicin treatment is based on maximum tolerable dose determined from in house toxicity experiments within the concentration range commonly used in animal studies (Bao L, Haque A, Jackson K, et al. (2011) Increased Expression of P-Glycoprotein Is Associated with Doxorubicin Chemoresistance in the Metastatic 4T1 Breast Cancer Model. The American Journal of Pathology. 2011; 178 (2):838-852). Effects of drug/compound/extracts are evaluated thrice a week by monitoring tumor size and body weight. Euthanasia by cervical dislocation are performed at day 30 post tumor implantation. Tumors, organ tissues (lungs, liver, kidneys, spleen) and serum were immediately collected and allocated either for western blotting (immediately flash frozen using N2 and stored at −80° C.) or for paraffin fixation (immediately soaked in 10% formalin solution for at least one week). Paraffin-embedded tissues were stored at room temperature.
(§3) Tumor and organ tissues were fixed in 10% buffered formalin and embedded in paraffin. Paraffin-embedded samples were sectioned (6 μm) and underwent hemotoxylin and eosin (H&E) or immunohistochemical (IHC) staining. Paraffin-embedded tissue sections were heat immobilized and deparaffinized using xylene and rehydrated in a graded series of ethanol with a final wash in distilled water. For antigen retrieval, citrate retrieval buffer and Decloaking Chamber (Biocare Medical) were used. Images were captured using AxioVision software (Carl Zeiss MicroImaging, Inc.).

cleaved caspase-3 = experiment: IHC of cleaved caspase-3 in tumor tissues; format: in vivo, mice; settings: for caspase-3 expression compared with the low dose treatments and the Dox5+dLGG5 combination: day 30, Dox 5 mg/kg i.v., CR-API 400 mg/kg, dLGG 25 mg/kg daily o.p.; for cleaved caspase-3 expression in tumor tissues compared with the vehicle control: day 30, all treatment groups
Protocol: as §2, §3

[3] = Body weight of tumor-implanted mice; format: in vivo
Protocol: as §1

[4] = test system: 4T1 (murine TNBC) orthotopic tumor; experiment: 4T1 orthotopic breast cancer model: tumor growth and survival; format: in vivo, mice; settings: for reduced tumor volumes compared with the tumor control group: endpoint day 30; for tumor volume compared with the tumor control: Dox 5 mg/kg every 3 days i.v. (P<0.0001), Dox5+dLGG5 (P=0.0015), dLGG 25 mg/kg daily o.p. (P=0.0015)
Protocol: Female BALB/cByJNar1 mice (4-week-old) were supplied from National Laboratory Animal Center, Taipei, Taiwan and given a standard laboratory diet and distilled water ad libitum and kept on a 12-h light/dark cycle at 22±2° C. This study was conducted according to the institutional guidelines and approved by the Institutional Animal Care and Utilization Committee (IACUC) of Academia Sinica, Taiwan.
as §2

Cav-1 = experiment: Western blot of tumor tissues, Cav-1; format: in vivo, mice; settings: high dose dLGG (25 mg/kg), Dox5, Dox5+dLGG5
Protocol: as §1

[5] = test system: SKBR3 (Her2+ breast cancer cells); experiment: MTT cell viability assay, SKBR3; format: cell-based; settings: Homo sapiens, SK-BR-3; SKBR3, 24 hours, tested concentration range 5-100 μM
Protocol: (§4) Immortalized normal human mammary epithelial cells (MCF10A) and breast cancer cell lines including HER2+ (SKBR3), ER+ (MCF7), triple negative (MDA-MB-231), and murine TNBC cell line 4T1 were obtained from the ATCC (USA). Cells were expanded and frozen at low passage after the receipt of the original stocks. Cells were thawed and used within 15 passages.
(§5) Cells (3×10^3 cells/well) were seeded in 96-well plates overnight and treated for 24 hours. Cell growth was determined by MTT-based colorimetric assay. Viability of the cells treated with vehicle-only (0.5% DMSO) was defined as 100% viability. Cell survival after compound treatment was calculated using the following formula: viable cell number (%)=[OD570 (treated cells)/OD570 (vehicle control)]×100.

4T1 TNBC cells = experiment: MTT cell viability assay, 4T1; format: cell-based; settings: Mus musculus, murine derived TNBC cells 4T1, 24 hours
Protocol: as §4, §5

FAK = experiment: Western blot of tumor tissues, FAK phosphorylation; format: in vivo, mice; settings: high dose dLGG (25 mg/kg), high dose CR-API (400 mg/kg), Dox5, Dox5+dLGG5
Protocol: as §1

Rac1 = experiment: Western blot of tumor tissues, Rac1; format: in vivo, mice; settings: high dose dLGG (25 mg/kg), Dox5, Dox5+dLGG5
Protocol: as §1

[6] = test system: MDA-MB-231 (ER−, PR− and Her2− TNBC cells); experiment: MTT cell viability assay, MDA-MB-231; format: cell-based; settings: human derived TNBC cells, 24 hours
Protocol: as §4, §5

[7] = test system: MCF7 (ER+ breast cancer cells); experiment: MTT cell viability assay, MCF7; format: cell-based; settings: Homo sapiens; MCF7, 24 hours, tested concentration range 5-100 μM
Protocol: as §4, §5

[8] = test system: MCF10A (normal mammary epithelial cells); experiment: MTT cell viability assay, MCF10A; format: cell-based, human; settings: 24 h treatment
Protocol: as §4, §5

Src (p-Src^419) = experiment: Western blot of tumor tissues, Src activation; format: in vivo, mice; settings: all dLGG and CR-API treatments, Dox5+dLGG5, Dox5
Protocol: as §1

Ki67 = experiment: IHC of Ki67 in tumor tissues; format: in vivo, mice; settings: day 30, dLGG and CR-API regardless of dose, Dox5, Dox5+dLGG5, vs tumor control
Protocol: as §1

COX-2 [9] = experiment: Western blot of tumor tissues, COX-2; format: in vivo, mice; settings: all dLGG and CR-API groups, Dox5+dLGG5 compared with Dox5 alone
Protocol: as §1

[10] = test system: TNBC metastatic tumor nodules in liver; experiment: Distal metastasis to the liver (H&E, Ki-67 IHC); format: in vivo, mice; settings: day 30; all dose groups (dLGG5, dLGG25, CR-API200, CR-API400, Dox5, Dox5+dLGG5) vs tumor control
Protocol: as §1

[11] = dLGG 25 mg/kg, CR-API 400 mg/kg daily o.p., Dox 5 mg/kg every 3 days i.v., Dox5+dLGG5

Structure (SMILES) | COX-2 expression in liver and lung tissues (COX-2 [1]) | metastatic tumor nodules in lung (H&E) [2, 11] | tumor metastasis nodules in the lung tissues [2] | caspase-3 expression compared with the low dose treatments and the Dox5+dLGG5 combination (cleaved caspase-3) | cleaved caspase-3 expression in tumor tissues compared with the vehicle control (cleaved caspase-3) | tumor volume compared with the tumor control ([4]; day 30) | Cav-1 expression level in tumor tissues (Cav-1) | phosphorylation of FAK in tumor tissues (FAK) | Rac1 expression level in tumor tissues (Rac1) | activation of Src (p-Src^419) in tumor tissues compared with the tumor control (Src (p-Src^419)) | tumor metastasis nodules in the liver tissues [10] | further results
CC/C=C\C/C=C\C/C=C\CCCCCCCC(=O)OC[C@H](CO[C@@H]1O[C@H](CO)[C@H](O)[C@H](O)[C@H]1O)OC(=O)CCCCCCC/C=C\C/C=C\C/C=C\CC [dLGG, 1,2-di-O-α-linolenoyl-3-O-β-galactopyranosyl-sn-glycerol] | decreased in a dose-dependent manner | not detectable | less compared with the tumor control group | higher caspase-3 expression | increased expression of cleaved caspase-3 | significant tumor volume reduction | decreased significantly | significantly inhibited | decreased significantly | significantly inhibited | less compared with the tumor control group | CYP2C19 expression level in tumor tissues (CYP2C19): dose dependent effect on attenuating the expression levels; metastatic tumor nodules in lung (H&E) ([2]; low dose: dLGG 5 mg/kg, CR-API 200 mg/kg daily o.p.): visible; weight loss ([3]; dLGG 5 and 25 mg/kg, CR-API 200 and 400 mg/kg daily o.p., given alone): No significant weight loss; survival ([4]; dLGG5: 5 mg/kg daily o.p., day 30): 100%; reduced tumor volumes compared with the tumor control group ([4]; dLGG5: 5 mg/kg daily o.p., P<0.05): 18%; survival ([4]; dLGG25: 25 mg/kg daily o.p., day 30): 100%; reduced tumor volumes compared with the tumor control group ([4]; dLGG25: 25 mg/kg daily o.p., P<0.05): 47%; pIC50 [5]: < 4.00; pIC50 (4T1 TNBC cells): 4.26; pIC50 [6]: 4.26; pIC50 [7]: < 4.00; cell survival [8]: no significant change in cell survival; Ki-67 overexpression in tumor tissues (Ki67): attenuated; COX-2 expression level in tumor tissues (COX-2 [9]): dose dependent effect on attenuating the expression levels
COc1cccc2c1C(=O)c1c(O)c3c(c(O)c1C2=O)C[C@@](O)(C(=O)CO)C[C@@H]3O[C@H]1C[C@H](N)[C@H](O)[C@H](C)O1 [Dox, doxorubicin, reference compound] | further induce COX-2 expression | not detectable | less compared with the tumor control group | higher caspase-3 expression | increased expression of cleaved caspase-3 | significant tumor volume reduction | decreased significantly | significantly inhibited | decreased significantly | much less or no effect at all | less compared with the tumor control group | loss of weight ([3]; Dox5: 5 mg/kg every 3 days i.v., day 30): 10 % of starting body weights; reduction in tumor weight ([4]; Dox5: 5 mg/kg every 3 days i.v., day 30, P<0.05): 60%
